This is an account of results in ChEMBL document CHEMBL3425470, “Discovery of imidazopyridine derivatives as highly potent respiratory syncytial virus fusion inhibitors” (ACS Med Chem Lett, 2015).

A short description of data set [1]: Antiviral activity against Respiratory syncytial virus A infected in human Hep2 cells assessed as reduction of virus-induced cytopathic effect after 6 days by CCK-8 assay. Format: functional, cell-based, Respiratory syncytial virus type A. As to conditions: HEp-2, 144 h.
Data set [2] in a line: Cytotoxicity against human Hep2 cells assessed as cell viability after 6 days by CCK-8 assay.
Data set [3] can be described thus: Clearance in mouse liver microsomes at 1 uM.
A short description of data set [4]: Solubility of the compound in phosphate buffer at pH 6.5 after overnight incubation by LYSA method.
A short description of another data set: in vitro. As to conditions: PAMPA.
Data set [5] can be described thus: Clearance in human liver microsomes at 1 uM.
The target in a further data set is Cytochrome P450 2D6 (Homo sapiens, UniProt P10635). In words: Inhibition of CYP2D6 in human liver microsomes by LC-MS/MS analysis.
Cytochrome P450 2D6, sequence (P10635 whole entry): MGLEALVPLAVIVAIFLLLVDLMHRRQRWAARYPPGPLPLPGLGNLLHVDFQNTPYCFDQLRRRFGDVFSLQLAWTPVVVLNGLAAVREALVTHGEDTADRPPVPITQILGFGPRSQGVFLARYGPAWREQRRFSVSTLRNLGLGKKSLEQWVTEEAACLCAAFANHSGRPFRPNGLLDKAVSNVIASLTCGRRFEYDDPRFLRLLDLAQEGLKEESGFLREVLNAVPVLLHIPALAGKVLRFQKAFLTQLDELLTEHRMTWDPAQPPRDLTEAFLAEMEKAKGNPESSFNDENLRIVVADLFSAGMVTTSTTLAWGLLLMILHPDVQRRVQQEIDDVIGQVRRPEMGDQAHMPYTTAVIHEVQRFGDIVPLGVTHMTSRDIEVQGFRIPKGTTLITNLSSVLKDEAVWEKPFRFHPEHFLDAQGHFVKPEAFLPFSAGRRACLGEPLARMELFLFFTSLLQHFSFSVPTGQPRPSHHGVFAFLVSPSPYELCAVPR
In a further data set the target is Cytochrome P450 3A4 (Homo sapiens, UniProt P08684). The data set is described as follows: Inhibition of CYP3A4 in human liver microsomes by LC-MS/MS analysis.
Cytochrome P450 3A4, sequence (P08684 whole entry): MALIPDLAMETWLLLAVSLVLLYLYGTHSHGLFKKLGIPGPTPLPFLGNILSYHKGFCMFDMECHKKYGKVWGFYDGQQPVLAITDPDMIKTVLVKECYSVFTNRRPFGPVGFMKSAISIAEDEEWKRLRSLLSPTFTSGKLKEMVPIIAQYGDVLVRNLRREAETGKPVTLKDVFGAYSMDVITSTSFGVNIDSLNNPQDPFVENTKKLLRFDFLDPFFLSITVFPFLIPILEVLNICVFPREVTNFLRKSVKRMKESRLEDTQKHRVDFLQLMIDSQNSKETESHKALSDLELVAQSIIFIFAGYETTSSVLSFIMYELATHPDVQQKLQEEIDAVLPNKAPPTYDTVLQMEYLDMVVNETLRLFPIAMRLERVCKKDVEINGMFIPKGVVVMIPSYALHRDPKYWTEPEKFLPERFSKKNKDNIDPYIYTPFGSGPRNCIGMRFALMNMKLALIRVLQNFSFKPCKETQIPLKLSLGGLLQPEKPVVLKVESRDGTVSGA
For a further data set, the target named is Cytochrome P450 2C9 (Homo sapiens, UniProt P11712). In words: Inhibition of CYP2C9 in human liver microsomes by LC-MS/MS analysis.
Cytochrome P450 2C9, sequence (P11712 whole entry): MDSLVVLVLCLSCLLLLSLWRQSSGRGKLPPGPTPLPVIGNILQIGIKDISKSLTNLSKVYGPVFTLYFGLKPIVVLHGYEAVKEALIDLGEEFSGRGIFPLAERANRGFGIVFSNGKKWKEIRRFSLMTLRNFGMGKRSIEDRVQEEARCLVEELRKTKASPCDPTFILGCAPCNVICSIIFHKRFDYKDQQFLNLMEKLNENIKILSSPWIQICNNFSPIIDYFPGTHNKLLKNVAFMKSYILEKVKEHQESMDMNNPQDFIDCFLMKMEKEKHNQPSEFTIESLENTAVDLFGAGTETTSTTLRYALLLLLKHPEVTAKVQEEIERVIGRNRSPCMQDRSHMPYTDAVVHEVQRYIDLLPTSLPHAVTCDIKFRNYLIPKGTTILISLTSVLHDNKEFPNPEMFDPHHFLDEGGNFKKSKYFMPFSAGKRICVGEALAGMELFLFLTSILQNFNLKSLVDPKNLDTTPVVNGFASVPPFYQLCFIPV

Molecules are shown by their SMILES. Values after ≈ are worked out from the molar mass of the structure shown.

Description for in vitro: Permeability of the compound at 150 uM by PAMPA

With `O=c1n(Cc2nc3ccccc3n2CCCCO)c2cnccc2n1C1CC1`, the EC50 in [1] amounted to 28 nM.

Consider `Cc1ccc2nc(Cn3c(=O)n(C4CC4)c4ccncc43)c(CCCCO)n2c1`, for which, in [1], the EC50 was 217 nM. For the same compound, the CC50 at 144 h in data set [2] (Hep2 cells) was more than 100000 nM.

As to `O=c1n(Cc2nc3ccc(F)cn3c2CCCCO)c2cnccc2n1C1CC1`, the EC50 in [1] was 96 nM. Moreover, in data set [2] (Hep2 cells), the cytotoxic concentration (CC50) at 144 h is more than 100000 nM.

`O=c1n(Cc2nc3ccc(Cl)cn3c2CCCCO)c2cnccc2n1C1CC1`: in data set [1], the EC50 came to 422 nM. Besides, in data set [2] (Hep2 cells), the CC50 at 144 h was more than 100000 nM.

Regarding `O=c1n(Cc2nc3ccc(C(F)(F)F)cn3c2CCCCO)c2cnccc2n1C1CC1`, the EC50 in data set [1] stood at 2890 nM. Moreover, the half-maximal cytotoxic concentration (CC50) at 144 h in [2] (Hep2 cells) was more than 100000 nM.

Turning to `Cc1ccn2c(CCCCO)c(Cn3c(=O)n(C4CC4)c4ccncc43)nc2c1`, the EC50 in data set [1] was 6 nM. Moreover, the CC50 at 144 h in data set [2] (Hep2 cells) was more than 100000 nM.

As to `CCc1ccn2c(CCCCO)c(Cn3c(=O)n(C4CC4)c4ccncc43)nc2c1`, the EC50 in [1] turned out to be 7 nM. For the same compound, the CC50 at 144 h in data set [2] (Hep2 cells) is more than 100000 nM.

For the compound `O=c1n(Cc2nc3cc(F)ccn3c2CCCCO)c2cnccc2n1C1CC1`, the EC50 in data set [1] amounted to 23 nM. Moreover, in data set [2] (Hep2 cells), the CC50 at 144 h is more than 100000 nM.

Regarding `O=c1n(Cc2nc3ccccn3c2CCCCO)c2cnccc2n1C1CC1`, in data set [1], the concentration for a half-maximal effect (EC50) was 17 nM. Also, the CC50 at 144 h in data set [2] (Hep2 cells) is more than 100000 nM.

On to `O=c1n(Cc2nc3cc(C(F)(F)F)ccn3c2CCCCO)c2cnccc2n1C1CC1`, for which the EC50 in [1] is 217 nM. Moreover, the 50% cytotoxic concentration (CC50) at 144 h in data set [2] (Hep2 cells) is more than 100000 nM.

In the case of `O=c1n(Cc2nc3cc(Cl)ccn3c2CCCCO)c2cnccc2n1C1CC1`, the CLhep predicted at 1 µM in [3] was 80 mL/min/kg; in data set [5], 11.5 mL/min/kg. Moreover, the EC50 in data set [1] is 7 nM. In addition, the solubility in data set [4] came out at 20 µg/mL (≈ 48.6 µM). In addition, the Papp at 150 µM in “in vitro” came out at 3.1 ×10⁻⁶ cm/s. Further, in data set [2] (Hep2 cells), the CC50 at 144 h was more than 100000 nM.

Regarding `O=c1n(Cc2cn3ccc(Cl)cc3n2)c2cnccc2n1C1CC1`, the EC50 in [1] is 3060 nM. The cytotoxic concentration (CC50) at 144 h in data set [2] (Hep2 cells) is 22300 nM.

Consider `N#Cc1c(Cn2c(=O)n(C3CC3)c3ccncc32)nc2cc(Cl)ccn12`, for which the EC50 in data set [1] came out at 86 nM. In data set [2] (Hep2 cells), the CC50 at 144 h was found to be 22500 nM.

As to `O=c1n(Cc2nc3cc(Cl)ccn3c2CO)c2cnccc2n1C1CC1`, the EC50 in data set [1] came to 1930 nM. For the same compound, the CC50 at 144 h in data set [2] (Hep2 cells) is more than 100000 nM.

On to `O=C(O)c1c(Cn2c(=O)n(C3CC3)c3ccncc32)nc2cc(Cl)ccn12`, for which the EC50 in data set [1] is 25500 nM. Also, the CC50 at 144 h in [2] (Hep2 cells) was more than 100000 nM.

Regarding `O=C(NCCO)c1c(Cn2c(=O)n(C3CC3)c3ccncc32)nc2cc(Cl)ccn12`, the half-maximal effective concentration (EC50) in data set [1] was 2230 nM. The CC50 at 144 h in data set [2] (Hep2 cells) is more than 100000 nM.

With `CS(=O)(=O)CCNC(=O)c1c(Cn2c(=O)n(C3CC3)c3ccncc32)nc2cc(Cl)ccn12`, the EC50 in [1] worked out at 82 nM. Besides, in data set [2] (Hep2 cells), the 50% cytotoxic concentration (CC50) at 144 h is more than 100000 nM.

For the compound `O=C(O)/C=C/c1c(Cn2c(=O)n(C3CC3)c3ccncc32)nc2cc(Cl)ccn12`, in [1], the 50% effective concentration (EC50) amounted to 207 nM. Moreover, the CC50 at 144 h in data set [2] (Hep2 cells) is more than 100000 nM.

For the compound `O=C(O)CCc1c(Cn2c(=O)n(C3CC3)c3ccncc32)nc2cc(Cl)ccn12`, the IC50 against Cytochrome P450 2D6, against Cytochrome P450 3A4 and against Cytochrome P450 2C9 was more than 50000 nM each time. In addition, the CLhep predicted at 1 µM in data set [3] is 9.1 mL/min/kg. The EC50 in data set [1] amounted to 53 nM. This compound showed a solubility in data set [4] of 541 µg/mL (≈ 1310 µM). The same compound returned a Papp at 150 µM in “in vitro” of 0.3 ×10⁻⁶ cm/s. Further, the 50% cytotoxic concentration (CC50) at 144 h in [2] (hep-2) was more than 100000 nM.

On to `NC(=O)CCc1c(Cn2c(=O)n(C3CC3)c3ccncc32)nc2cc(Cl)ccn12`, for which the values for the CLhep predicted at 1 µM in data set [3] and in data set [5] were 59 mL/min/kg and 13.5 mL/min/kg, respectively. In data set [1], the EC50 worked out at 5 nM. In data set [4], this compound gave a solubility of 87 µg/mL (≈ 212 µM). In “in vitro”, the apparent permeability (Papp) at 150 µM amounted to 2.5 ×10⁻⁶ cm/s. Moreover, the cytotoxic concentration (CC50) at 144 h in data set [2] (Hep2 cells) was more than 100000 nM.

For `O=C(CCc1c(Cn2c(=O)n(C3CC3)c3ccncc32)nc2cc(Cl)ccn12)NCCO`, the CLhep predicted at 1 µM in data set [3] is 47 mL/min/kg; in [5], 2.9 mL/min/kg. In addition, the EC50 in data set [1] came to 10 nM. Moreover, the concentration in solution in data set [4] (solubility) was 107 µg/mL (≈ 235 µM). Moreover, the Papp at 150 µM in the data set “in vitro” worked out at 0.96 ×10⁻⁶ cm/s. For the same compound, the CC50 at 144 h in [2] (Hep2 cells) was more than 100000 nM.

As for `CS(=O)(=O)NC(=O)CCc1c(Cn2c(=O)n(C3CC3)c3ccncc32)nc2cc(Cl)ccn12`, the EC50 in data set [1] was 46 nM. Besides, in data set [2] (Hep2 cells), the CC50 at 144 h is more than 100000 nM.

As for `CS(=O)(=O)CCc1c(Cn2c(=O)n(C3CC3)c3ccncc32)nc2cc(Cl)ccn12`, the IC50 at Cytochrome P450 2D6, on Cytochrome P450 3A4 and against Cytochrome P450 2C9 was more than 50000 nM each time. Further, the CLhep predicted at 1 µM in data set [3] is 35 mL/min/kg; in [5], 2.5 mL/min/kg. In [1], the EC50 worked out at 6 nM. This compound also gave a solubility in data set [4] of 59 µg/mL (≈ 132 µM). The Papp at 150 µM in “in vitro” was 3.6 ×10⁻⁶ cm/s. The CC50 at 144 h in data set [2] (Hep2 cells) was more than 100000 nM.

As to `CCS(=O)(=O)CCc1c(Cn2c(=O)n(C3CC3)c3ccncc32)nc2cc(Cl)ccn12`, the IC50 against Cytochrome P450 2D6, at Cytochrome P450 3A4 and against Cytochrome P450 2C9 was more than 50000 nM throughout. The CLhep predicted at 1 µM in data set [3] was 62 mL/min/kg; in data set [5] it was 4.6 mL/min/kg. Moreover, in data set [1], the EC50 worked out at 3 nM. This compound displayed a solubility in data set [4] of 46 µg/mL (≈ 100 µM). Further, in the data set “in vitro”, the Papp at 150 µM came out at 2.6 ×10⁻⁶ cm/s. The CC50 at 144 h in data set [2] (hep-2) is more than 100000 nM.

In the case of `CCCCNc1c(Cn2c(=O)n(C3CC3)c3ccncc32)nc2cc(Cl)ccn12`, the EC50 in data set [1] came to 41 nM. Also, in data set [2] (Hep2 cells), the CC50 at 144 h is more than 100000 nM.

As to `O=c1n(Cc2nc3cc(Cl)ccn3c2NC2CCCCC2)c2cnccc2n1C1CC1`, the EC50 in data set [1] came to 72 nM. In addition, the CC50 at 144 h in data set [2] (Hep2 cells) was more than 100000 nM.

With `O=c1n(Cc2nc3cc(Cl)ccn3c2NCCN2CCOCC2)c2cnccc2n1C1CC1`, the EC50 in data set [1] came out at 83 nM. The CC50 at 144 h in [2] (Hep2 cells) is more than 100000 nM.

Turning to `O=c1n(Cc2nc3cc(Cl)ccn3c2CNCCO)c2cnccc2n1C1CC1`, in data set [1], the EC50 was determined as 683 nM. In addition, the CC50 at 144 h in [2] (Hep2 cells) is more than 100000 nM.

`CS(=O)(=O)c1ccc(-c2c(Cn3c(=O)n(C4CC4)c4ccncc43)nc3cc(Cl)ccn23)cc1`: the EC50 in [1] came out at 89 nM. In data set [2] (Hep2 cells), the CC50 at 144 h was more than 100000 nM.
